{
  "source": "patent US20260007681A1",
  "about": "“INDOLE DERIVATIVES AS ESTROGEN RECEPTOR DEGRADERS” (REGENTS OF THE UNIVERSITY OF MICHIGAN, priority 2022, published 2026)",
  "data": [
    {"target": "ER (Homo sapiens (Human), UniProt P03372)", "sequence (P03372 whole entry)": "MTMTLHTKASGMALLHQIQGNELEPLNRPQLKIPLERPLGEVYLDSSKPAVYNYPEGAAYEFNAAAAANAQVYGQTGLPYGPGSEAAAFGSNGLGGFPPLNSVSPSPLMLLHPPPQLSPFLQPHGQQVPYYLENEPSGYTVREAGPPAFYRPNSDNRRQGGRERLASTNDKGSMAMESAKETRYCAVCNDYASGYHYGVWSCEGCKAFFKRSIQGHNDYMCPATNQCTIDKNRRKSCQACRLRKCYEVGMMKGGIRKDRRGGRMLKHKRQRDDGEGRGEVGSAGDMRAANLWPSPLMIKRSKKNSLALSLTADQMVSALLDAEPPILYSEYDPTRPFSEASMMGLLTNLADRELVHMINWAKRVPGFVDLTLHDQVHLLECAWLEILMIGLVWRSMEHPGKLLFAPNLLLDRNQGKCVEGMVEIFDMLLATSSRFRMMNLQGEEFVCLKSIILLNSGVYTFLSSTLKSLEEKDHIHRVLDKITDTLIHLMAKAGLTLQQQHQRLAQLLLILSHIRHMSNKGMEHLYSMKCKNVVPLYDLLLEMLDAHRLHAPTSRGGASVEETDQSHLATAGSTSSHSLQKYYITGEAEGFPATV", "experiment": "Western blot analysis (Compounds B1-B278)", "type": "cell-based", "conditions": "ER degradation by traditional Western blot; DC50 classes", "in_short": "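Compound-treated cells were lysed in RIPA buffer (Tris.HCl pH 7.6, 1% NP-40, deoxycholate, 0.1% SDS) with protease inhibitors; equal protein was resolved on 10% SDS-PAGE, transferred to PVDF and immunoblotted. Band intensities were quantified and normalized to GAPDH.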", "values": [
      {"smiles": "C[C@@H]1Cc2c([nH]c3ccccc23)[C@@H](c2ccc(C3=CCC(C(=O)N4CCC(N5Cc6cc7c(cc6C5)C(=O)N(C5CCC(=O)NC5=O)C7=O)CC4)CC3)nc2)N1CC(F)F", "note": "(stereo partly drawn) [Compound B235, 6-(1-(4-(5-((1R,3R)-2-(2,2-difluoroethyl)-3-methyl-2,3,4,9-tetrahydro-1H-pyrido[3,4-b]indol-1-yl)pyridin-2-yl)cyclohex-3-ene-1-carbonyl)piperidin-4-yl)-2-(2,6-dioxopiperidin-3-yl)-6,7-dihydropyrrolo[3,4-f]isoindole-1,3(2H,5H)-dione]", "Traditional Western Degradation Potency": "C (“C”: >100 nM)"},
      {"smiles": "C[C@@H]1Cc2c([nH]c3ccccc23)[C@@H](c2cnc(C3=CCC(C(=O)N4CCC(N5Cc6cc7c(cc6C5)C(=O)N(C5CCC(=O)NC5=O)C7=O)CC4)CC3)nc2)N1CC(F)F", "note": "(stereo partly drawn) [Compound B236, 6-(1-(4-(5-((1R,3R)-2-(2,2-difluoroethyl)-3-methyl-2,3,4,9-tetrahydro-1H-pyrido[3,4-b]indol-1-yl)pyrimidin-2-yl)cyclohex-3-ene-1-carbonyl)piperidin-4-yl)-2-(2,6-dioxopiperidin-3-yl)-6,7-dihydropyrrolo[3,4-f]isoindole-1,3(2H,5H)-dione]", "Traditional Western Degradation Potency": "B (“B”: 10-100 nM)"},
      {"smiles": "C[C@@H]1Cc2c([nH]c3ccccc23)[C@@H](c2ccc(C3=CCC(C(=O)N4CCC(N5Cc6cc7c(cc6C5)C(=O)N(C5CCC(=O)NC5=O)C7=O)CC4)CC3)cc2)N1CC(F)F", "note": "(stereo partly drawn) [Compound B237, 6-(1-(4′-((1R,3R)-2-(2,2-difluoroethyl)-3-methyl-2,3,4,9-tetrahydro-1H-pyrido[3,4-b]indol-1-yl)-2,3,4,5-tetrahydro-[1,1′-biphenyl]-4-carbonyl)piperidin-4-yl)-2-(2,6-dioxopiperidin-3-yl)-6,7-dihydropyrrolo[3,4-f]isoindole-1,3(2H,5H)-dione]", "Traditional Western Degradation Potency": "B (“B”: 10-100 nM)"},
      {"smiles": "C[C@@H]1Cc2c([nH]c3ccccc23)[C@@H](c2ccc(C3CCC(C(=O)N4CCC(N5Cc6cc7c(cc6C5)C(=O)N(C5CCC(=O)NC5=O)C7=O)CC4)CC3)nc2)N1CC(F)F", "note": "(stereo partly drawn) [Compound B238, 6-(1-(4-(5-((1R,3R)-2-(2,2-difluoroethyl)-3-methyl-2,3,4,9-tetrahydro-1H-pyrido[3,4-b]indol-1-yl)pyridin-2-yl)cyclohexane-1-carbonyl)piperidin-4-yl)-2-(2,6-dioxopiperidin-3-yl)-6,7-dihydropyrrolo[3,4-f]isoindole-1,3(2H,5H)-dione]", "Traditional Western Degradation Potency": "C (“C”: >100 nM)"},
      {"smiles": "C[C@@H]1Cc2c([nH]c3ccccc23)[C@@H](c2ccc(C3CCC(C(=O)N4CCC(N5Cc6cc7c(cc6C5)C(=O)N(C5CCC(=O)NC5=O)C7=O)CC4)CC3)c(F)c2)N1CC(F)F", "note": "(stereo partly drawn) [Compound B239, 6-(1-(4-(4-((1R,3R)-2-(2,2-difluoroethyl)-3-methyl-2,3,4,9-tetrahydro-1H-pyrido[3,4-b]indol-1-yl)-2-fluorophenyl)cyclohexane-1-carbonyl)piperidin-4-yl)-2-(2,6-dioxopiperidin-3-yl)-6,7-dihydropyrrolo[3,4-f]isoindole-1,3(2H,5H)-dione]", "Traditional Western Degradation Potency": "B (“B”: 10-100 nM)"},
      {"smiles": "C[C@@H]1Cc2c([nH]c3ccccc23)[C@@H](c2c(F)cc(C3=CCC4(CC3)CCN(C(=O)CN3Cc5cc6c(cc5C3)C(=O)N(C3CCC(=O)NC3=O)C6=O)CC4)cc2F)N1CC(F)F", "note": "(stereo partly drawn) [Compound B240, 6-(2-(9-(4-((1R,3R)-2-(2,2-difluoroethyl)-3-methyl-2,3,4,9-tetrahydro-1H-pyrido[3,4-b]indol-1-yl)-3,5-difluorophenyl)-3-azaspiro[5.5]undec-8-en-3-yl)-2-oxoethyl)-2-(2,6-dioxopiperidin-3-yl)-6,7-dihydropyrrolo[3,4-f]isoindole-1,3(2H,5H)-dione]", "Traditional Western Degradation Potency": "B (“B”: 10-100 nM)"},
      {"smiles": "C[C@@H]1Cc2c([nH]c3ccccc23)[C@@H](c2ccc(C3=CCC4(CC3)CCN(C(=O)CN3Cc5cc6c(cc5C3)C(=O)N(C3CCC(=O)NC3=O)C6=O)CC4)cc2F)N1CC(F)F", "note": "(stereo partly drawn) [Compound B241, 6-(2-(9-(4-((1R,3R)-2-(2,2-difluoroethyl)-3-methyl-2,3,4,9-tetrahydro-1H-pyrido[3,4-b]indol-1-yl)-3-fluorophenyl)-3-azaspiro[5.5]undec-8-en-3-yl)-2-oxoethyl)-2-(2,6-dioxopiperidin-3-yl)-6,7-dihydropyrrolo[3,4-f]isoindole-1,3(2H,5H)-dione]", "Traditional Western Degradation Potency": "C (“C”: >100 nM)"},
      {"smiles": "C[C@@H]1Cc2c([nH]c3ccccc23)[C@@H](c2ccc(C3CCC4(CC3)CCN(C(=O)CN3Cc5cc6c(cc5C3)C(=O)N(C3CCC(=O)NC3=O)C6=O)CC4)cc2F)N1CC(F)F", "note": "(stereo partly drawn) [Compound B243, 6-(2-(9-(4-((1R,3R)-2-(2,2-difluoroethyl)-3-methyl-2,3,4,9-tetrahydro-1H-pyrido[3,4-b]indol-1-yl)-3-fluorophenyl)-3-azaspiro[5.5]undecan-3-yl)-2-oxoethyl)-2-(2,6-dioxopiperidin-3-yl)-6,7-dihydropyrrolo[3,4-f]isoindole-1,3(2H,5H)-dione]", "Traditional Western Degradation Potency": "C (“C”: >100 nM)"},
      {"smiles": "C[C@@H]1Cc2c([nH]c3ccccc23)[C@@H](c2c(F)cc(C3CCC4(CC3)CCN(C(=O)CN3Cc5cc6c(cc5C3)C(=O)N(C3CCC(=O)NC3=O)C6=O)CC4)cc2F)N1CC(F)F", "note": "(stereo partly drawn) [Compound B244, 6-(2-(9-(4-((1R,3R)-2-(2,2-difluoroethyl)-3-methyl-2,3,4,9-tetrahydro-1H-pyrido[3,4-b]indol-1-yl)-3,5-difluorophenyl)-3-azaspiro[5.5]undecan-3-yl)-2-oxoethyl)-2-(2,6-dioxopiperidin-3-yl)-6,7-dihydropyrrolo[3,4-f]isoindole-1,3(2H,5H)-dione]", "Traditional Western Degradation Potency": "C (“C”: >100 nM)"},
      {"smiles": "C[C@@H]1Cc2c([nH]c3ccccc23)[C@@H](c2ccc(C3=CCC(C(=O)N4CCC(N5Cc6cc7c(cc6C5)C(=O)N(C5CCC(=O)NC5=O)C7=O)CC4)CC3)cc2F)N1CC(C)(C)F", "note": "(stereo partly drawn) [Compound B245, 2-(2,6-dioxopiperidin-3-yl)-6-(1-(3′-fluoro-4′-((1R,3R)-2-(2-fluoro-2-methylpropyl)-3-methyl-2,3,4,9-tetrahydro-1H-pyrido[3,4-b]indol-1-yl)-2,3,4,5-tetrahydro-[1,1′-biphenyl]-4-carbonyl)piperidin-4-yl)-6,7-dihydropyrrolo[3,4-f]isoindole-1,3(2H,5H)-dione]", "Traditional Western Degradation Potency": "B (“B”: 10-100 nM)"},
      {"smiles": "C[C@@H]1Cc2c([nH]c3ccccc23)[C@@H](c2ccc(C3=CCC(C(=O)N4CCC(N5Cc6cc7c(cc6C5)C(=O)N(C5CCC(=O)NC5=O)C7=O)CC4)CC3)cc2F)N1CC(C)(F)F", "note": "(stereo partly drawn) [Compound B246, 6-(1-(4′-((1R,3R)-2-(2,2-difluoropropyl)-3-methyl-2,3,4,9-tetrahydro-1H-pyrido[3,4-b]indol-1-yl)-3′-fluoro-2,3,4,5-tetrahydro-[1,1′-biphenyl]-4-carbonyl)piperidin-4-yl)-2-(2,6-dioxopiperidin-3-yl)-6,7-dihydropyrrolo[3,4-f]isoindole-1,3(2H,5H)-dione]", "Traditional Western Degradation Potency": "C (“C”: >100 nM)"},
      {"smiles": "C[C@@H]1Cc2c([nH]c3ccccc23)[C@@H](c2ncc(C3=CCC(C(=O)N4CCC(N5Cc6cc7c(cc6C5)C(=O)N(C5CCC(=O)NC5=O)C7=O)CC4)CC3)cc2F)N1CC(C)(F)F", "note": "(stereo partly drawn) [Compound B247, 6-(1-(4-(6-((1S,3R)-2-(2,2-difluoropropyl)-3-methyl-2,3,4,9-tetrahydro-1H-pyrido[3,4-b]indol-1-yl)-5-fluoropyridin-3-yl)cyclohex-3-ene-1-carbonyl)piperidin-4-yl)-2-(2,6-dioxopiperidin-3-yl)-6,7-dihydropyrrolo[3,4-f]isoindole-1,3(2H,5H)-dione]", "Traditional Western Degradation Potency": "C (“C”: >100 nM)"},
      {"smiles": "C[C@@H]1Cc2c([nH]c3ccccc23)[C@@H](c2ncc(C3=CCC(C(=O)N4CCC(N5Cc6cc7c(cc6C5)C(=O)N(C5CCC(=O)NC5=O)C7=O)CC4)CC3)cc2F)N1CC(C)(C)F", "note": "(stereo partly drawn) [Compound B248, 2-(2,6-dioxopiperidin-3-yl)-6-(1-(4-(5-fluoro-6-((1S,3R)-2-(2-fluoro-2-methylpropyl)-3-methyl-2,3,4,9-tetrahydro-1H-pyrido[3,4-b]indol-1-yl)pyridin-3-yl)cyclohex-3-ene-1-carbonyl)piperidin-4-yl)-6,7-dihydropyrrolo[3,4-f]isoindole-1,3(2H,5H)-dione]", "Traditional Western Degradation Potency": "C (“C”: >100 nM)"},
      {"smiles": "C[C@@H]1Cc2c([nH]c3ccccc23)[C@@H](c2c(F)cc(C3=CCC(C(=O)N4CCC(N5Cc6cc7c(cc6C5)C(=O)N(C5CCC(=O)NC5=O)C7=O)CC4)CC3)cc2F)N1CC1(F)CC1", "note": "(stereo partly drawn) [Compound B249, 6-(1-(3′,5′-difluoro-4′-((1R,3R)-2-((1-fluorocyclopropyl)methyl)-3-methyl-2,3,4,9-tetrahydro-1H-pyrido[3,4-b]indol-1-yl)-2,3,4,5-tetrahydro-[1,1′-biphenyl]-4-carbonyl)piperidin-4-yl)-2-(2,6-dioxopiperidin-3-yl)-6,7-dihydropyrrolo[3,4-f]isoindole-1,3(2H,5H)-dione]", "Traditional Western Degradation Potency": "C (“C”: >100 nM)"},
      {"smiles": "C[C@@H]1Cc2c([nH]c3ccccc23)[C@@H](c2ccc(C3=CCC(C(=O)N4CCC(N5Cc6cc7c(cc6C5)C(=O)N(C5CCC(=O)NC5=O)C7=O)CC4)CC3)cc2F)N1CC1(F)CC1", "note": "(stereo partly drawn) [Compound B250, 2-(2,6-dioxopiperidin-3-yl)-6-(1-(3′-fluoro-4′-((1R,3R)-2-((1-fluorocyclopropyl)methyl)-3-methyl-2,3,4,9-tetrahydro-1H-pyrido[3,4-b]indol-1-yl)-2,3,4,5-tetrahydro-[1,1′-biphenyl]-4-carbonyl)piperidin-4-yl)-6,7-dihydropyrrolo[3,4-f]isoindole-1,3(2H,5H)-dione]", "Traditional Western Degradation Potency": "C (“C”: >100 nM)"}
    ]}
  ]
}
